Results as given in patent EP2698384A1, “Detection of synthetic cannabinoids” (priority 2012, dated 2014).

Key:
Format in all cases: binding, sheep
Conditions in all cases: Cross-reactants at 100 ng/ml; 1000ng/ml; single level of cross reactants
[1] = test system: Antibody to Immunogen VI
Experimental: (§1) The wells of an enhanced binding 96 well polystyrene microtiter plate were coated with IgG fraction of antiserum raised to Immunogen VI, diluted in 10mM Tris, pH8.5 (125µl/well). The appropriate antibody coating dilution was determined using standard ELISA checkerboard techniques. The plate was incubated overnight at 4°C, washed 4 times over 10 minutes with Tris buffered saline containing Tween 20 (TBST) and tapped dry. Standard solutions of RCS-4 were prepared in TBST at 0, 0.3125, 0.625, 1.25, 2.5, 5, 10 and 20ng/ml, and 50µl of each was added to the appropriate wells (see figure 1). 75µl of conjugate (appropriate hapten-HRP) diluted in Tris buffer (pH 7.2) containing EDTA, D-mannitol, sucrose, thimerosal and BSA, was added to each of the wells. The appropriate dilution of conjugate was also determined using standard ELISA checkerboard techniques. The plate was incubated at 25°C for 1 hour. Excess unbound conjugate was removed by washing 6 times over a 10 minute period with TBST. 125µl oftetramethylbenzidine (TMB) substrate solution was added to each well of the plate that was then incubated for 20 minutes in the dark at room temperature. The reaction was terminated by addition of 125µl 0.2M H2SO4 to each well. The absorbance was then measured at 450nm using a microtiter plate reader. The data are inputted to a computer program called 'KC Junior'. It is a 4 parameter fit curve and allow the calculatation of concentrations between the standard runs. This program is used to calculate the IC50s by dividing the 0ng/ml OD value by 2 and obtaining the concentration value from the curve for this OD.
(§2) The data set our in Tables 3 and 4 are generated using antibodies raised against the indicated Immunogens in a competitive binding assay with the indicated tracers, using the indicated standards: Table 2
(§3) In order to determine the specificity of the competitive ELISAs, standard solutions of a range of structurally similar synthetic cannabinoids and their metabolites were prepared in TBST. Using the calibration curves generated and employing a single level of cross reactants, these were used to determine the cross-reactivity of each immunoassay with these substances. Table 4: Cross reactivity of the competitive ELISAs for synthetic cannabinoids and their metabolites

[2] = test system: Antibody to Immunogen III
Experimental: as §1
In a similar manner to that described above, the wells of a 96-well microtiter plate were coated with the IgG fraction of the antiserum raised to Immunogens I, II or III. Standard solutions (JWH-250 for Immunogen III) were applied at 0, 0.625, 1.25, 2.5, 5, 10, 20 and 40ng/ml and conjugate was employed as detection reagent.
as §2, §3

[3] = test system: Antibody to Immunogen V
Experimental: as §1
In a similar manner to that described above, the wells of a 96-well microtiter plate were coated with the IgG fraction of the antiserum raised to Immunogens IV, V, VII or VIII. Standard solutions (RCS-8 for Immunogen V) were prepared in TBST at 0, 1.25, 2.5, 5, 10, 20, 40 and 80ng/ml and conjugate was employed as detection reagent.
as §2, §3

Row | Structure (SMILES) | %B/B0 [1] [%] | %B/B0 [2] [%] | %B/B0 [3] [%]
1 | CCCCCn1c(O)c(C(=O)c2cccc3ccccc23)c2ccccc21 | 101.92 | 97.61 | 98.82
2 | CCCCn1c(O)c(C(=O)c2cccc3ccccc23)c2ccccc21 | 89.23 | 97.53 | 91.80
3 | CCCCCn1cc(C(=O)c2cccc3ccccc23)c2c(O)cccc21 | 92.00 | 82.22 | 83.42
4 | CCCCn1cc(C(=O)c2cccc3ccccc23)c2c(O)cccc21 | 84.39 | 84.57 | 76.09
5 | CCCCCn1cc(C(=O)c2cccc3ccccc23)c2cc(O)ccc21 | 95.94 | 96.24 | 88.70
6 | CCCCn1cc(C(=O)c2cccc3ccccc23)c2cc(O)ccc21 | 85.96 | 95.65 | 82.86
7 | CCCCCn1cc(C(=O)c2cccc3ccccc23)c2ccc(O)cc21 | 91.26 | 92.91 | 75.65
8 | CCCCn1cc(C(=O)c2cccc3ccccc23)c2ccc(O)cc21 | 84.50 | 94.60 | 68.70
9 | CCCCCn1cc(C(=O)c2cccc3ccccc23)c2cccc(O)c21 | 91.71 | 97.89 | 80.99
10 | CCCCn1cc(C(=O)c2cccc3ccccc23)c2cccc(O)c21 | 81.62 | 95.81 | 73.04
11 | CCCCCCCC(C)(C)c1ccc(C2CCCC(O)C2)c(O)c1 (stereo not drawn) | 100.84 | 95.39 | 86.41
12 | CCCCCCn1cc(C(=O)c2cccc3ccccc23)c2cc(O)ccc21 | 89.29 | 95.38 | 79.13
13 | CCCCn1cc(C(=O)c2ccc(OC)cc2)c2ccccc21 | 4.40 | 62.80 | 76.87
14 | CC(O)CCCn1cc(C(=O)c2cccc3ccccc23)c2ccccc21 (racemic) | 76.16 | 86.69 | 75.59
15 | CCCCCCC(C)(C)c1ccc([C@@H]2C[C@H](O)CC[C@H]2CCCO)c(O)c1 (racemic) [((+-)-CP 55,940)] | 98.86 | 93.49 | 80.97
16 | CCCCCCC(C)(C)c1ccc([C@H]2CCC[C@@H](O)C2)c(O)c1 (racemic) [CP-49,497-C7 ((+-) CP 47,497)] | 95.90 | 96.91 | 69.53
17 | CC(F)CCCn1cc(C(=O)c2cccc3ccccc23)c2ccccc21 (single isomer, unassigned) [AM-2201 N-(4-fluoropentyl) isomer] | 71.98 | 68.00 | 52.90
18 | CC(C)C(C)n1cc(C(=O)c2cccc3ccccc23)c2ccccc21 (single isomer, unassigned) [JWH 018 N-(1,2-dimethylpropyl) isomer] | 83.71 | 90.17 | 74.41
19 | CCCC(C)n1cc(C(=O)c2cccc3ccccc23)c2ccccc21 (single isomer, unassigned) [JWH-018 N-(1-methylbutyl) isomer] | 85.57 | 87.31 | 76.65
20 | CCC(C)Cn1cc(C(=O)c2cccc3ccccc23)c2ccccc21 (single isomer, unassigned) [JWH-018 N-(2-methylbutyl) isomer (JWH-073 2-methylbutyl homologue)] | 80.10 | 92.91 | 69.13
21 | O=C(O)Cc1c[nH]c2ccc(O)cc12 [5-hydroxyindole-3-acetic acid (5-HIAA), 5-hydroxyindole-3-acetic acid] | 95.75 | 90.54 | 92.46
22 | OCCc1c[nH]c2ccc(O)cc12 [5-hydroxytryptophol] | 95.67 | 85.39 | 90.61

Row | Structure (SMILES) | %B/B0 [1] [%] | %B/B0 [2] [%] | %B/B0 [3] [%]
23 | CS(=O)(=O)O.Cc1c(C(=O)c2cccc3ccccc23)c2cccc3c2n1[C@H](CN1CCOCC1)CO3 [(+)WIN 55212-2 (mesylate)] | 91.65 | 93.28 | 68.43
24 | CN1CCCCC1Cn1cc(C(=O)c2ccccc2I)c2ccccc21 (stereo not drawn) [AM-223] | 79.16 | 95.28 | 54.35
25 | COc1ccc(C(=O)c2c(C)n(CCN3CCOCC3)c3cc(I)ccc23)cc1 [AM-630 (other name 6-Iodopravadoline), 6-Iodopravadoline] | 39.25 | 91.34 | 71.78
26 | O=C(c1cccc(I)c1)c1cn(CCCCCF)c2ccccc12 [AM-694 3-iodo isomer] | 44.38 | 67.86 | 63.18
27 | O=C(c1ccc(I)cc1)c1cn(CCCCCF)c2ccccc12 [AM-694 4-iodo isomer] | 16.99 | 65.53 | 77.65
28 | O=C(c1ccccc1I)c1cn(CCCCCF)c2ccccc12 [AM-694] | 70.77 | 72.80 | 64.61
29 | CN1CCCCC1Cn1cc(C(=O)c2cccc3ccccc23)c2ccccc21 (stereo not drawn) [AM-1220] | 81.44 | 99.70 | 63.74
30 | CN1CCCCC1Cn1cc(C(=O)c2cc([N+](=O)[O-])ccc2I)c2ccccc21 (stereo not drawn) [AM-1241] | 99.43 | 102.11 | 71.68
31 | O=C(c1cccc2ccccc12)c1cn(CCCC(O)CF)c2ccccc12 (stereo not drawn) [AM-2201 N-(4-hydroxypentyl) metabolite] | 77.68 | 68.76 | 50.40
32 | O=C(c1cccc2ccccc12)c1cn(CCCCCF)c2ccccc12 [AM-2201] | 76.96 | 67.95 | 76.07
33 | CCCCCCC(C)(C)C1=CC(=O)C(C2CCCC(O)C2)=CC1=O (stereo not drawn) [CP-47,497-para-quinone analogue] | 94.38 | 96.58 | 72.98
34 | CCCCCc1cc(O)c2c(c1)OC(C)(C)c1ccc(C)cc1-2 [Cannabinol] | 95.90 | 97.02 | 64.54
35 | CCCCCc1cc(O)c2c(c1)OC(C)(C)[C@@H]1CCC(C)=C[C@@H]21 [Delta 9 THC] | 94.84 | 91.21 | 65.28
36 | CCCCCCC(C)(C)c1cc(O)c2c(c1)OC(C)(C)[C@@H]1CC=C(CO)C[C@@H]21 [HU-210] | 90.89 | 91.13 | 67.43
37 | CCCCCCC(C)(C)c1cc(O)c2c(c1)OC(C)(C)[C@H]1CC=C(CO)C[C@H]21 [HU-211 (Dexanabinol), Dexanabinol] | 98.97 | 95.96 | 71.68
38 | CCCCCCC(C)(C)c1cc(OC)c([C@@H]2C=C(CO)[C@@H]3C[C@H]2C3(C)C)c(OC)c1 [HU-308] | 97.34 | 96.26 | 71.33
39 | O=C(O)c1c[nH]c2ccccc12 [Indole-3-carboxylic Acid] | 95.41 | 91.19 | 64.69
40 | CCCCCn1cc(C(=O)c2ccc3ccccc3c2)c2ccccc21 [JWH 018 2'-naphthyl isomer] | 44.48 | 76.35 | 88.32
41 | CC(C)CCn1cc(C(=O)c2cccc3ccccc23)c2ccccc21 [JWH 018 N-(3-methylbutyl) isomer (JWH-073 3-methylbutyl homologue)] | 66.63 | 82.58 | 63.42
42 | CCCCCn1cc(C(=O)C23CC4CC(CC(C4)C2)C3)c2ccccc21 [JWH 018 adamantyl analog] | 93.91 | 84.69 | 86.65
43 | CCCCn1cc(C(=O)c2c(C)ccc3ccccc23)c2ccccc21 [JWH 073 2-methylnaphthyl analog] | 86.98 | 86.14 | 77.45
